Measurements from BigSolDB 2.1.

Oc1ccc(Cl)c2cccnc12
solubility (mole fraction)
Settings	278.15 K	283.15 K	288.15 K	293.15 K	298.15 K	303.15 K	308.15 K	313.15 K	318.15 K	323.15 K
in 1,4-dioxane	–	–	0.0556	0.064	0.0751	0.0875	0.102	0.119	0.14	0.161
in 2-ethoxyethanol	0.0161	0.0194	0.0249	0.0284	0.0333	0.0398	0.0466	0.055	0.0646	0.0768
in ethanol	0.00253	0.00304	0.00376	0.00468	0.00564	0.00694	0.00839	0.0101	0.0121	0.0145
in n-propyl acetate	0.015	0.0178	0.0213	0.0251	0.0297	0.0355	0.0416	0.0495	0.0587	0.0696
